A melting point compilation (Tetko et al.; mined from patent text by program, amines drawn as free bases though some values may be those of a salt)

Work on `COc1cc(-c2csc3c2OCCO3)c(OC)c2c(OC)cc(-c3csc4c3OCCO4)c(OC)c12` yielded a melting point of 300 to 303 °C. For `CCOc1ccc(OCC(F)(F)F)cc1C(=O)O`, the melting point was 101 to 103 °C. `NP(N)(=O)NC(=O)c1ccsc1` gave a melting point of 269 to 278 °C. For `CCCC1=C(C(=O)OCC)C(c2cccc(Cl)c2C)c2c[nH]nc2N1` (stereo not given), the melting point was 185 °C. Compound `COc1cccc(CCc2ccccc2C(=O)O)c1` has a melting point of 119 to 122 °C. `CNC(=O)Oc1ccc(CN2CCN(c3ccc([N+](=O)[O-])cc3)CC2)cc1OC` gave a melting point of 155 to 157 °C. `O=C(c1ccccc1)N1CC2COCC2C1` (stereo not given) showed a melting point of 47 to 48 °C. Compound `N#Cc1ccc(-c2nc(=O)c3ccccc3s2)cc1` has a melting point of 241 °C. In the case of `O=C1Nc2ccccc2C1(O)c1ccc2c(c1)OCO2` (stereo not given), the melting point is reported as 177 to 180 °C. With `CCOC(=O)C1(C(=O)Nc2ccc(C(F)(F)F)cc2)CC1` the melting point was 80.5 to 82 °C. `CC(NCc1ccccc1)N(Cc1ccccc1)CC(C)[N+](=O)[O-]` (stereo not given) showed a melting point of 49.5 to 50 °C. In the case of `CCOC(=O)c1ccc(C(=O)NS(=O)(=O)c2ccc(CCNC(C)=O)cc2)cn1`, the melting point is reported as 245 °C. Work on `N#Cc1ccc2c3ccc(C#N)c4c(C#N)ccc(c5ccc(Br)c1c52)c43` yielded a melting point of 235 to 237 °C. Compound `C=CC1CC2C3CCC4=CC(=O)CCC4=C3C(c3ccc(-c4ccc(OC)nc4)cc3)CC2(C)C1C(=O)C1CC1` (stereo not given) has a melting point of 197 °C. In the case of `CC(C)CCNC(=O)c1c(N)cc(Cl)cc1Cl`, the melting point is reported as 148 to 150 °C. In the case of `COc1ccc(CC(=O)O)c(C(=O)c2ccccc2)c1`, the melting point is reported as 158 to 159 °C. With `CCOC(=O)Cn1c2c([nH]c(=O)c1=O)CCC1=C2C=C(n2ccc(CN3CCN(C(c4ccccc4)c4ccccc4)CC3)c2)CC1` the melting point was > 200 °C. Compound `Cc1c(CO)cc(-c2ccc(S(C)(=O)=O)cc2)n1-c1ccc(F)cc1` has a melting point of 140 to 142 °C. Work on `CC(C)(C)Sc1c(CC(C)(C)C(=O)O)n(Cc2ccc(Cl)cc2)c2ccc(OCc3cccc(Cl)n3)cc12` yielded a melting point of 206 to 207 °C. `c1ccc(CC(=Nn2cncn2)c2ccccc2)cc1` showed a melting point of 78 to 80 °C. `COC1O[C@H](CC#N)[C@H](OCc2ccccc2)[C@H]1O` (stereo not given in full) gave a melting point of 59 to 60 °C. With `CN(C(=O)c1ccccc1C(c1ccc(O)cc1)c1ccc(O)cc1)c1ccccc1` the melting point was 246 to 247 °C. `COC(=O)C(=C\c1ccc(OC2CCCC2)c(OC)c1)/C(=C\c1ccccc1)C(N)=O` gave a melting point of 158 to 159 °C. `COC1C(=O)N=C(NC(=O)Nc2cccc(Cl)c2)N1C` (stereo not given) showed a melting point of 147 to 149 °C. In the case of `COC(=O)c1ccc2oc(-c3ccccc3O)cc(=O)c2c1`, the melting point is reported as 290 to 291 °C. Compound `O=C1OCC2C3OC(C4=C3CCCC4)C12` (stereo not given) has a melting point of 105 to 106 °C. Work on `CC(C(=O)Nc1ccc2c(c1)CC(=O)N2)N1CCC(Cc2ccccc2)CC1` (stereo not given) yielded a melting point of 153 to 155 °C. With `O=C(CCCCN1CCOCC1)c1ccc2c(c1)C(=O)c1cc(C(=O)CCCCN3CCOCC3)ccc1-2` the melting point was 146 to 148 °C. In the case of `CN(C)C(=O)c1cc(O)ccc1O`, the melting point is reported as 144 to 146 °C. For `Cc1ccc2c(c1)c(-c1ccc(F)cc1)c(C)n2C1CCN(CCN2CCNC2=O)CC1`, the melting point was 188 to 190 °C. Work on `N#Cc1cc(C(=O)NNC(=O)c2occc2-c2ccccc2OCC2CCCCC2)ccc1O` yielded a melting point of 142 to 143 °C. With `O=C(O)CN1CCC(Cc2ccccc2)CC1` the melting point was 250 to 252 °C. For `CCOc1ccc2c3c([nH]c2c1)CC(NC(C)=O)CC3` (stereo not given), the melting point was 184 to 186 °C. For `CCOC(=O)c1cn(Cc2ccc(OCc3csc(-c4ccccc4)n3)cc2)nc1-c1cccs1`, the melting point was 94 to 95 °C. `O=C(O)c1ccc(CO/N=C/c2cn(Cc3ccccc3)c3ccccc23)cc1Br` showed a melting point of 107 to 109 °C. `COc1cc(COc2cc(N)c(Cl)cc2C(=O)CCCCN2CCC(C)CC2)cc(OC)c1` showed a melting point of 136 to 137 °C. Compound `CC(C)(CO)NS(=O)(=O)c1cccc(NC(=O)c2cnn3c(C(F)(F)F)cc(-c4ccc(C(F)(F)F)c(F)c4)nc23)c1` has a melting point of 221 °C. Work on `Cc1csc(N2CCN(Cc3ccc(C(=O)NCc4ccccc4)cc3)C2=O)n1` yielded a melting point of 185 to 186 °C. `CCc1nn2c(I)cccc2c1N(CC)CCF` gave a melting point of 51.2 to 53.6 °C. Compound `CCNC(=O)Oc1cccc(NC(=O)CC(C)=O)c1` has a melting point of 138 °C. In the case of `CC(C)C(=O)Nc1ccc(-c2c[nH]c(=O)cn2)cc1`, the melting point is reported as 280 °C. For `CC1(C)CC(NC(=O)Nc2ccccc2)c2cc(C#N)ccc21` (stereo not given), the melting point was 150 to 152 °C. `CCc1onc(-c2ccccc2)c1C(=O)NCCCN1CCN(c2ccccc2OCC(F)(F)F)CC1` gave a melting point of 102 to 104 °C. With `COc1ccc(S(=O)(=O)c2c(SC)nn3c(N)cc(C)nc23)cc1` the melting point was > 230 °C. `CN(CCN1CCOCC1)C(=O)c1ccc(COc2cccc3c2CN(C2CCC(=O)NC2=O)C3=O)cc1` (stereo not given) showed a melting point of 120 to 122 °C. In the case of `O=C1O[C@@H](Cn2ccnn2)CN1c1ccc(-c2ccc(C(O)C3CC3)nc2)c(F)c1` (stereo not given in full), the melting point is reported as 160 to 163 °C. In the case of `CN(C)C1(c2ccccc2)CCC(=CC(=O)N2CCC(c3c[nH]c4ccccc34)C2)CC1` (stereo not given), the melting point is reported as 94 to 97 °C. `CCOC(=O)Cc1csc(NC(=O)c2sc3ccc(OC)cc3c2OC(C)C)n1` showed a melting point of 91 to 92 °C. For `COc1nnc2c(=O)c3ccccc3ccn12`, the melting point was 149 to 150 °C. Compound `O=C(/C=C/c1cccc(S(=O)(=O)N2CCN(Cc3ccc4c(c3)OCO4)CC2)c1)NO` has a melting point of 172 °C. In the case of `CC(c1oc2ccccc2c(=O)c1-c1cccc(F)c1)n1nc(-c2ccc(N(C)C)cc2)c2c(N)ncnc21` (stereo not given), the melting point is reported as 214 to 217 °C. Compound `Cc1nnc(-c2ccc3occ(-c4cccc(OC(F)(F)F)c4)c3c2)o1` has a melting point of 110 to 111 °C. For `O=C(O)c1ccc(-n2nnnc2S)cc1`, the melting point was 198 °C. Compound `CCOC(=O)c1cnc2n(c1=O)CCc1cc(OC)ccc1-2` has a melting point of 158 to 160 °C. With `Cc1ccnc(N2CCN(CCc3c(-c4ccc(O)cc4)n4c5c(cccc35)CCC4)CC2)c1` the melting point was 220 °C. Work on `CSc1ccc(C(=O)NCc2ccc3c(c2)C(=O)N(C2CCC(=O)NC2=O)C3=O)nc1` (stereo not given) yielded a melting point of 185 to 187 °C. With `CC(=O)Oc1c2c(c3ccccc3c1OC(C)=O)Nc1ccccc1S2` the melting point was 206 to 207 °C. Compound `Cc1cc(C2=CC(c3cc(Cl)cc(Cl)c3)(C(F)(F)F)OC2)ccc1C(=O)OC(C)(C)C` (stereo not given) has a melting point of 160 to 162 °C. Work on `Cc1cc2c(CCl)c(CO)c(Cl)nc2cc1Cl` yielded a melting point of 169 to 170 °C. `CC12CCC(=O)C=C1C(=O)CC1C2CCC2(C)C(c3cccnc3)=CCC12` (stereo not given) showed a melting point of 210 to 212 °C. With `ClCc1ccc(-c2ccccc2)cn1` the melting point was 73 °C. Work on `O=C(NC12CC3CC(CC1C3)C2)c1ccncc1C(c1ccc(O)cc1)c1ccc(O)cc1` yielded a melting point of 218 to 220 °C. `CNC1NC(=O)c2ccccc21` (stereo not given) gave a melting point of 152 °C. `CC(=O)N1OCC(=S)NC1c1ccccc1` (stereo not given) showed a melting point of 172 to 174 °C. `CC(=NNC(=N)N)c1cccc(OCc2ccc3ccccc3n2)c1` gave a melting point of 57 to 59 °C. `COc1c(OCc2ccc3ccccc3c2)cccc1C(=O)c1nccs1` gave a melting point of 100 °C. `Cc1ccc(CCC(CO)n2cnc(C(N)=O)c2)cc1` (stereo not given) gave a melting point of 138 to 141 °C. Work on `CCOC(=O)/C=C/c1ccccc1C#N` yielded a melting point of 60 to 62 °C. In the case of `NC(=O)C1(C2c3[nH]c4ccc(Cl)cc4c3CCN2C=O)CCC1` (stereo not given), the melting point is reported as > 260 °C. `O=C(NC1CN2CCC1CC2)c1cccc2nc(-c3ccc(F)cc3)oc12` (stereo not given) showed a melting point of 185 to 187 °C. `COc1cccc(OCC(=O)c2cc(OCc3ccccc3)ccc2OC)c1` gave a melting point of 76 to 77 °C. `O=C(NCCCCCCOC(=O)N1CCC(O)CC1)Oc1ccc(Oc2ccccc2)cc1` gave a melting point of 48 to 55 °C. Work on `CCCc1c(OCCCCCOc2ccc3nc(CCC(=O)O)ccc3c2CCC(=O)O)ccc2c1OCCC2=O` yielded a melting point of 123 to 128 °C. Compound `Cc1cc(-n2nn[nH]c2=O)c(Cl)cc1Cl` has a melting point of 135 to 137 °C. With `CCCCCc1cc(-c2cc(=O)c3c(O)cc(O)cc3o2)ccc1OC` the melting point was 166 to 168 °C. Compound `CCCC(=O)N(NC(N)=S)c1ccccc1` has a melting point of 219 to 221 °C. For `Cn1nc(-c2ccccc2)c(C=Cc2ccccc2C(=O)O)c1Cl`, the melting point was 161 to 163 °C. With `CCCCCN(C(=O)Cl)c1ccc2c(c1)C(C)(C)CCC2(C)C` the melting point was 79 to 81 °C. Compound `N#CCOc1ccc(Cl)cc1-n1nncc1-c1cccc(C(F)(F)F)c1` has a melting point of 145 to 146 °C. In the case of `OCc1nccc(N2CCCCC2)n1`, the melting point is reported as 92 to 93 °C. For `ClC1=NN(c2ccccc2)CC1`, the melting point was 92 to 93 °C. In the case of `Cc1nc(-c2ccc3c(c2)CCCC3)c(CC(Cl)C(=O)O)o1` (stereo not given), the melting point is reported as 141 to 142 °C. Work on `CC(OC(=O)ON=C(C#N)c1ccccc1)C1CC1` (stereo not given) yielded a melting point of 65 to 67 °C. With `CCCCC(=O)c1c(-c2ccc3c(Br)c(O)ccc3c2)oc2ccccc12` the melting point was 171 to 172 °C. `C[C@H](c1ccccc1)N1CCO[C@@H](c2ccc(C#N)cc2)C1` gave a melting point of 83.6 °C. `NC(=O)N(O)Cc1sccc1Oc1ccccc1` showed a melting point of 132 to 134 °C. With `CON=C(C(=O)O)C(=O)CBr` the melting point was 76 to 78 °C. In the case of `CC(C)c1nn(Cc2ccc(Cl)cc2Cl)cc1CCCOc1cc(CCC(=O)O)n(-c2ccccc2)n1`, the melting point is reported as 105 to 107 °C. Work on `C=C(CO)C[C@](C)(O)[C@H]1CC[C@H]2[C@@H](O[Si](C)(C)C(C)(C)C)CCC[C@@]21C` yielded a melting point of 95 °C. In the case of `COCC1CN(c2ccc(C3CCC(=C(C)C)CC3)cc2)C(=O)O1` (racemic), the melting point is reported as 89 to 91 °C. `COc1ccc(S(=O)(=O)C(CCCCOc2ccccc2)(Cc2cccnc2)C(=O)O)cc1` (stereo not given) showed a melting point of 148 to 151 °C. In the case of `CC1(C)OC(=O)Nc2ccc(-c3coc(C=O)c3)cc21`, the melting point is reported as 262 to 263 °C. Work on `CNc1nc(N)ncc1-c1ccc(Cl)cc1Cl` yielded a melting point of 189 to 190 °C. `O=c1ccc(C(c2ccccc2)c2ccccc2)c[nH]1` gave a melting point of 174 to 176 °C. In the case of `CC(C(=O)O)c1ccc2c(c1)Cc1cccnc1O2` (stereo not given), the melting point is reported as 183 to 184 °C. `CCOC(=O)C1=C(c2ccc(-n3c(C)nc4cnccc43)nc2)NC(C)=C(C(=O)Nc2ccccn2)C1c1ccccc1Cl` (stereo not given) showed a melting point of 242 to 243 °C. `O=C1CCC(O)=C1Cc1ccc(Br)cc1` gave a melting point of 199 to 201 °C. `COc1ccc(N2CCCn3c2nc2c(Cl)ccc(C(OCC(F)(F)F)C4CC4)c23)c(C)c1` (stereo not given) showed a melting point of 157 to 158 °C. With `Cc1nc2c(N)nc3ccccc3c2n1CCCNC(=O)N1CCOCC1` the melting point was 226 to 228 °C. `CCOC(=O)c1ccc(OCCCCCCCCCCCCCOc2ccc(Cl)cc2)cc1` showed a melting point of 75 to 77 °C.
